{"source": "paper PMC9105976", "about": "“A Novel β-Hairpin Peptide Z-d14CFR Enhances Multidrug-Resistant Bacterial Clearance in a Murine Model of Mastitis” (International Journal of Molecular Sciences, 2022)", "key": {"[1]": {"assay": "Retention time of peptide in HPLC (hydrophobicity)", "type": "physicochemical", "conditions": "used as measure of hydrophobicity (order Z-d14CR > Z-d14CF > Z-d13 > Z-d14CFR > Z-d14C); column and gradient not given"}, "[2]": {"system": "Streptococcus suis CVCC3307", "assay": "MIC/MBC, microdilution broth method", "type": "cell-based", "conditions": "Streptococcus suis CVCC3307; kills 99.9% bacteria; NA = no activity at 1 mg/mL", "description": "(§1) The MIC of peptides against bacteria was carried out by the microdilution broth method. The bacterial culture (OD 600 = 0.6) was diluted in 10 mM PBS to 1 × 10^6 CFU/mL. The bacterial suspension (100 μL) was added to 96-well plates, and the same volume of peptides, ampicillin or gentamicin (concentrations ranging from 0.001 to 2 mg/mL) were then added to the same 96-well plates, respectively."}, "[3]": {"system": "Proteus vulgaris CVCC1971", "assay": "MIC/MBC, microdilution broth method", "type": "cell-based", "conditions": "Proteus vulgaris CVCC1971; kills 99.9% bacteria; NA = no activity at 1 mg/mL", "description": "as §1"}, "E. coli ATCC25922 [4]": {"system": "E. coli ATCC25922", "assay": "Extracellular β-galactosidase assay", "type": "cell-based", "conditions": "2 MIC, 4 h at 37 °C, ONPG, OD 420 nm, compared with PBS, p < 0.001", "description": "(§2) E. coli ATCC25922 and S. aureus ATCC29213 were washed and resuspended with 10 mM PBS into OD 600 = 0.5. […] Then, 190 μL of the supernatants was incubated with 10 μL 2-nitrophenyl-β-d-galactopyranoside, ONPG (Macklin, N814742, Shanghai, China) at a final concentration of 3 mM at 37 °C for 30 min. The absorbance at 420 nm was measured to assess the level of β-galactosidase outside the cells. The bacteria treated with 10 mM PBS in absence of peptide as the negative control and treated with ultrasonication as the positive control."}, "S. aureus ATCC29213 [5]": {"system": "S. aureus ATCC29213", "assay": "Extracellular β-galactosidase assay", "type": "cell-based", "conditions": "2 MIC, 4 h at 37 °C, ONPG, OD 420 nm, compared with PBS, p < 0.001", "description": "as §2"}, "MRSA ATCC33591": {"system": "MRSA ATCC33591", "assay": "MIC/MBC, microdilution broth method", "type": "cell-based, S. aureus", "conditions": "MRSA ATCC33591; kills 99.9% bacteria; NA = no activity at 1 mg/mL", "description": "as §1"}, "[6]": {"system": "E. coli ATCC25922 and S. aureus ATCC29213", "assay": "Cytoplasmic membrane depolarization, DiSC3(5)", "type": "cell-based", "conditions": "2 MIC to 1/4 MIC; fluorescence 622/670 nm, 30 min", "description": "The ability of Z-d14CFR to disrupt inner cytoplasmic membrane potential of E. coli ATCC25922 and S. aureus ATCC29213 was monitored using 3,3-dipropylthiadicarbocyanine iodide DiSC3(5) (Macklin, D864435, Shanghai, China) as previous mentioned. The bacteria were washed and resuspended with 5 mM HEPES, pH 7.4, containing 5 mM glucose and 100 mM KCl buffer into 1 × 10^6 CFU/mL. DiSC3(5) was subsequently added and incubated at 37 °C in the dark for 15 min until the fluorescence had stabilized. Z-d14CFR in a final concentration of 2 MIC, 1 MIC, 1/2 MIC and 1/4 MIC was added to the mixture. The fluorescence intensity was continuously monitored for 30 min by an excitation wavelength of 622 nm and an emission wavelength of 670 nm."}, "E. coli ATCC25922 [7]": {"system": "E. coli ATCC25922", "assay": "Time-killing assay", "type": "cell-based", "conditions": "2 MIC, CFU counts at 0-24 h", "description": "(§3) E. coli ATCC25922 and S. aureus ATCC29213 in the mid-logarithmic phase were diluted into 1 × 10^6 CFU/mL with 10 mM PBS, and incubated with 10 μL Z-d14CFR in a final concentration of 2 MIC. At 0, 4, 8, 12, 16, 20, and 24 h, the mixture was serial diluted and spread onto LB agar plates. After 16 h of cultivation, the CFU number of bacteria was counted to evaluate the ability of peptide to kill bacteria. The bacteria treated with 10 mM PBS as a negative control, and meanwhile incubated with 2 MIC gentamicin or polymyxin B as a positive control."}, "S. aureus ATCC29213 [8]": {"system": "S. aureus ATCC29213", "assay": "Time-killing assay", "type": "cell-based", "conditions": "2 MIC, CFU counts at 0-24 h", "description": "as §3"}, "E. coli ATCC25922 [9]": {"system": "E. coli ATCC25922", "assay": "Cytoplasmic membrane integrity, SYTO 9/PI flow cytometry", "type": "cell-based", "conditions": "2 MIC, 3 h, flow cytometry, 10,000 cells, PBS 0%", "description": "(§4) E. coli ATCC25922 and S. aureus ATCC29213 (OD600 = 0.6) were washed and diluted into 1 × 10^8 CFU/mL in sterile saline. The cells were treated with Z-d14CFR in the final concentration of 2 MIC for 3 h. Following that, the same volume of a mixture contains SYTO 9 dye and PI (Thermo Fisher, Waltham, MA, USA) (v/v, 1:1) was added to bacteria and incubated at 37 °C in the dark for 15 min. The bacteria were washed with saline to remove the unbound dye and then observed with a Nikon A1 confocal laser scanning microscope.\n(§5) In order to further determine the percentage of PI-positive cells, the data of 10,000 cells were collected and analyzed by BD LSRFortessa flow cytometer."}, "S. aureus ATCC29213 [10]": {"system": "S. aureus ATCC29213", "assay": "Cytoplasmic membrane integrity, SYTO 9/PI flow cytometry", "type": "cell-based", "conditions": "2 MIC, 3 h, flow cytometry, 10,000 cells, PBS 0.4%", "description": "as §4, §5"}, "[11]": {"system": "mammalian cells (MAC-T, Hela, Vero)", "assay": "Cytotoxicity, CCK8", "type": "cell-based", "conditions": "at 1 mg/mL, 24 h in DMEM with 1% FBS, CCK8, OD 450 nm, three independent experiments", "description": "The cytotoxicity of peptides to mammalian cells was carried out according to CCK8 instructions (Beyotime, Shanghai, China). 1 × 10^4 Hela, Vero and MAC-T cells were, respectively, added in 96-well plates and cultured at 37 °C with 5% CO2 for 24 h. Then, the cells were washed thrice with 10 mM PBS to remove medium and then incubated with 100 μL peptide in DMEM with 1 % (v/v) FBS (finally concentration ranging from 1 mg/mL to 0.001 mg/mL). After incubating at 37 °C with 5% CO2 for 24 h, 10 μL CCK8 was added to the cells and then continued to be incubated at 37 °C for 4 h. CCK8 interacted with PBS without cells as the blank control. The absorbance of the mixture was measured at 450 nm and cell viability was calculated as follows: Cell viability (%) = (OD 450 peptide − OD 450 Blank)/(OD 450 PBS − OD 450 Blank) × 100%."}, "E. coli CAU201919": {"system": "E. coli CAU201919", "assay": "Murine model of mastitis induced by MDR E. coli", "type": "in vivo, mice", "conditions": "Z-d14CFR 25 μg or gentamicin 10 μg via milk duct at 3 h and 15 h, 27 h post-infection", "description": "In this study, the therapeutic effects of Z-d14CFR on MDR bacterial infection in vivo was verified by a murine mastitis model. E. coli CAU201919 was used to establish the mastitis model because it is highly pathogenic compared with other bacteria and is resistant to various antibiotics, such as ampicillin, amoxicillin and cefazolin. In brief, 45 Crl:CD1 female mice at 17–18 days of gestation were purchased from Beijing Vital River Laboratory Animal Technology Co., Ltd. (Beijing, China) and kept in the Laboratory Animal Center of China Agricultural University (Beijing, China). At 72 h post-partum, the mice were randomly divided into 5 groups (n = 9 per group) and the offspring were removed 3 h before of administration. The mice were anesthetized by Zoletil 50 (55 mg/kg body weight, WK001, Virbac, France) and held under the stereoscope in a supine position. Mice in the saline group and Z-d14CFR group were intraductal inoculated with 50 μL normal saline or 50 μL Z-d14CFR (25 μg each teat) alone to the milk duct. Mice in other groups were inoculated with 25 μL (1 × 10^5 CFU) E. coli CAU201919 suspension to the milk duct, and after 3 h of E. coli challenged, mice were treated with 25 μL saline, Z-d14CFR (25 μg) or gentamicin (10 μg), respectively, via milk duct injection. Then the mice were given the same treatment after 15 h of E. coli challenged. After 27 h of E. coli challenged, all mice were euthanized. The mammary gland tissues were collected to carry out bacterial count, histopathological examination and inflammatory factors examination."}}, "note": "Positions of bridges follow the written chain, without caps; N, C: chain ends. Residues, ends and D or L forms follow the SMILES beside them."}
{"smiles": "CC(C)[C@@H]1NC(=O)[C@@H]2CSSC[C@H](NC(=O)[C@H](CCCNC(=N)N)NC(=O)[C@@H](NC(=O)CNC(=O)[C@@H](N)CCCNC(=N)N)CSSC[C@@H](C(=O)N[C@@H](CCCNC(=N)N)C(N)=O)NC1=O)C(=O)N[C@@H](CC(N)=O)C(=O)N[C@@H](CO)C(=O)N[C@@H](CCCCN)C(=O)N[C@@H](CO)C(=O)N[C@@H](Cc1ccccc1)C(=O)N2", "note": "[Z-d14CFR] (H-RGCRCNSKSFCVCR-NH2; disulfide 3-13, 5-11; N-terminus assumed)", "values": [{"measurement": "RT, retention time of peptide in HPLC", "setting": "[1]", "value": 7.820, "unit": "min"}, {"measurement": "MBC", "setting": "[2]", "value": "NA (NA) (No antimicrobial activity at 1 mg/mL)"}, {"measurement": "MBC", "setting": "[3]", "value": "NA (NA) (No antimicrobial activity at 1 mg/mL)"}, {"measurement": "extracellular release of β-galactosidase", "setting": "E. coli ATCC25922 [4]", "value": "significantly induced the release of β-galactosidase"}, {"measurement": "extracellular release of β-galactosidase", "setting": "S. aureus ATCC29213 [5]", "value": "significantly induced the release of β-galactosidase"}, {"measurement": "MBC", "setting": "MRSA ATCC33591", "value": "NA (NA) (No antimicrobial activity at 1 mg/mL)"}, {"measurement": "DiSC3(5) release (cytoplasmic membrane depolarization)", "setting": "[6]", "value": "remarkable releasing of DiSC3(5)"}, {"measurement": "time to kill bacteria in the logarithmic phase", "setting": "E. coli ATCC25922 [7]; 1 × 10^6 CFU/mL", "value": "≤ 4", "unit": "h"}, {"measurement": "time to kill bacteria in the plateau", "setting": "E. coli ATCC25922 [7]", "value": "≤ 16", "unit": "h"}, {"measurement": "time to kill bacteria in the logarithmic phase", "setting": "S. aureus ATCC29213 [8]; 1 × 10^6 CFU/mL", "value": "≤ 4", "unit": "h"}, {"measurement": "time to kill bacteria in the plateau", "setting": "S. aureus ATCC29213 [8]", "value": "≤ 16", "unit": "h"}, {"measurement": "PI-positive bacteria", "setting": "E. coli ATCC25922 [9]", "value": 12.5, "unit": "%"}, {"measurement": "PI-positive bacteria", "setting": "S. aureus ATCC29213 [10]", "value": 3.4, "unit": "%"}, {"measurement": "cytotoxicity", "setting": "[11]", "value": "< 10", "unit": "%"}, {"measurement": "bacterial burden in the mammary gland", "setting": "E. coli CAU201919; Crl:CD1 mice, 1 × 10^5 CFU E. coli CAU201919 intraductal, infected only about 3.71 × 10^9, p < 0.001", "value": "3.57 × 10^8 CFU/g tissue"}, {"measurement": "histopathologic damage of the mammary gland (acinar wall thickening, neutrophils infiltration)", "setting": "E. coli CAU201919", "value": "obviously ameliorated"}, {"measurement": "increase in IL-1β mRNA expression in the mammary gland", "setting": "E. coli CAU201919; p < 0.001", "value": "attenuated"}, {"measurement": "increase in TNF-α mRNA expression in the mammary gland", "setting": "E. coli CAU201919; p < 0.001", "value": "attenuated"}]}
